Measurements as given in ChEMBL document CHEMBL1201862, “PubChem BioAssay data set” (2004).
The source made the active and inactive calls.

How the values were obtained:
Troponin, cardiac muscle = Troponin, cardiac muscle (Homo sapiens, UniProt P19429+P45379+P63316); assay: Fluorescence-based biochemical high throughput dose response assay for activators of the calcium sensitivity of cardiac Regulated Thin Filaments (RTF). [Related pubchem assays (depositor defined):AID493008, AID493018, AID504382, AID504383]; format: protein-complex assay
[1] = biological target: FAD-linked sulfhydryl oxidase ALR (Homo sapiens, UniProt P55789); assay: inhibitors of human ALR sulfhydryl oxidase, dose response, biochemical, H2O2 detection, luminescence, cherry-pick (AID 493248)
Chain of FAD-linked sulfhydryl oxidase ALR (P55789 whole entry): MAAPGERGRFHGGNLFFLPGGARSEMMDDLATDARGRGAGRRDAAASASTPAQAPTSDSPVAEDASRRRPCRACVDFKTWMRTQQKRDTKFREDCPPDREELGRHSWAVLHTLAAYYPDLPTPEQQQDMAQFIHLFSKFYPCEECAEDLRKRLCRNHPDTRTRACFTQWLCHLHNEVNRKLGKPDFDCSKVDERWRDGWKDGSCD

Cytochrome P450 3A4 = Cytochrome P450 3A4 (Homo sapiens, UniProt P08684);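 note: CYP3A4 tested as one member of a cytochrome P450 panel screen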
Chain of Cytochrome P450 3A4 (P08684 whole entry): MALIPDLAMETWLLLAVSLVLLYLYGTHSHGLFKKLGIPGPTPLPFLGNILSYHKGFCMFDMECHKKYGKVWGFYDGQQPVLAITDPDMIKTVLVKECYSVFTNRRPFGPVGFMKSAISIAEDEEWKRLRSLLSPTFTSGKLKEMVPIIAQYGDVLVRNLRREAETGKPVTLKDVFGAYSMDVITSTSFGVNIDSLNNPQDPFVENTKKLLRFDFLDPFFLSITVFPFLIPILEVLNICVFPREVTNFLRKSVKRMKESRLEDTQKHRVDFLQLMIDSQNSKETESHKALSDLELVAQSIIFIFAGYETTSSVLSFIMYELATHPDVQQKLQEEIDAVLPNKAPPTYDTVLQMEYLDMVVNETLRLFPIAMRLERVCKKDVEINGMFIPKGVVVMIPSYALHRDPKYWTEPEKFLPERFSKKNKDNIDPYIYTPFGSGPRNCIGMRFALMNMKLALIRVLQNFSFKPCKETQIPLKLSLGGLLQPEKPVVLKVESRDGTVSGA

[2] = biological target: Glucose-6-phosphate 1-dehydrogenase (Homo sapiens, UniProt P11413); assay: human G6PD enzyme inhibitors, dose response, selectivity assay for P. falciparum G6PD inhibitor project, biochemical, fluorescence (AID 504792); format: functional
Chain of Glucose-6-phosphate 1-dehydrogenase (P11413 whole entry): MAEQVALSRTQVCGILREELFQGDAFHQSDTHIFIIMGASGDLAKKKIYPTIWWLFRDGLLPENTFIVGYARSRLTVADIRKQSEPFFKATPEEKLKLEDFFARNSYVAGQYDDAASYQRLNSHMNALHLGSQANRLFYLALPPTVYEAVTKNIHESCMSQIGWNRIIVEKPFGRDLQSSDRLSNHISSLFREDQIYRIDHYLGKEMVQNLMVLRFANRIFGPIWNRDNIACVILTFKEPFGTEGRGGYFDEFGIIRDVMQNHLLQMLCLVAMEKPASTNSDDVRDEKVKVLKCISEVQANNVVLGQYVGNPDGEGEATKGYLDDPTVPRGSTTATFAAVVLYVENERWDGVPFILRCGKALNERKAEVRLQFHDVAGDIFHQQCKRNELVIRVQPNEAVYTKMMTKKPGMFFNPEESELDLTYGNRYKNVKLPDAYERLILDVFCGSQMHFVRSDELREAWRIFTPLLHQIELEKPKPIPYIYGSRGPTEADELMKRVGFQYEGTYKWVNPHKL

Cytochrome P450 2D6 = Cytochrome P450 2D6 (Homo sapiens, UniProt P10635);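 note: CYP2D6 member of a cytochrome P450 panel assay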
Chain of Cytochrome P450 2D6 (P10635 whole entry): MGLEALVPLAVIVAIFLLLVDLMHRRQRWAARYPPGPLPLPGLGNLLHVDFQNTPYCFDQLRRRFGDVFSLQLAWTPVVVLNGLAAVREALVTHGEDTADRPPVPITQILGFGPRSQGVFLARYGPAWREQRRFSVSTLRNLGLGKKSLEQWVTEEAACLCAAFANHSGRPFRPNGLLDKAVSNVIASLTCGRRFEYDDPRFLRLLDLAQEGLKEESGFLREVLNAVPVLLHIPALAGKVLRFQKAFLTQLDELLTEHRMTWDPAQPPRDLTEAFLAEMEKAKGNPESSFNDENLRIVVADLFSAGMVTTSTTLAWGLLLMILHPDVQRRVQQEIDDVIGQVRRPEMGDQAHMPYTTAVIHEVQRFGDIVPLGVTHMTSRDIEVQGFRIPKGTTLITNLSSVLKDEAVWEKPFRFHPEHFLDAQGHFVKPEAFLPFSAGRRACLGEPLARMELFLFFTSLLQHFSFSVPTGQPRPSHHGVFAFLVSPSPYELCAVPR

Cytochrome P450 2C19 = Cytochrome P450 2C19 (Homo sapiens, UniProt P33261); assay: Cytochrome panel assay with activity outcomes. Panel member name: p450-cyp2c19 Compounds with AC50 equal or less than 10 uM are considered active; format: functional; settings: read-out: AC50
Chain of Cytochrome P450 2C19 (P33261 whole entry): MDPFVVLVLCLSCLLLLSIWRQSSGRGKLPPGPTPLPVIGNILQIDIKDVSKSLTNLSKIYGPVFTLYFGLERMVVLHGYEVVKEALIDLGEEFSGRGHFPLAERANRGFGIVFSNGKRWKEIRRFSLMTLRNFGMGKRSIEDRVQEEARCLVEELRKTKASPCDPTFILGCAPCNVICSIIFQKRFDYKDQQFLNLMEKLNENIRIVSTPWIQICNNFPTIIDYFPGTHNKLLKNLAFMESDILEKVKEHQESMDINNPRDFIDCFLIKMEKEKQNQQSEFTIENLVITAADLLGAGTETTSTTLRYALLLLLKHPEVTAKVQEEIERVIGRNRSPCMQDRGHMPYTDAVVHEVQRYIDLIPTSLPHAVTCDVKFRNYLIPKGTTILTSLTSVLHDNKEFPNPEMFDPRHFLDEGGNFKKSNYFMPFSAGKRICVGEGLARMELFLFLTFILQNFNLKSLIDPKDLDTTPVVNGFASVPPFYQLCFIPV

Cytochrome P450 2C9 = Cytochrome P450 2C9 (Homo sapiens, UniProt P11712)
Chain of Cytochrome P450 2C9 (P11712 whole entry): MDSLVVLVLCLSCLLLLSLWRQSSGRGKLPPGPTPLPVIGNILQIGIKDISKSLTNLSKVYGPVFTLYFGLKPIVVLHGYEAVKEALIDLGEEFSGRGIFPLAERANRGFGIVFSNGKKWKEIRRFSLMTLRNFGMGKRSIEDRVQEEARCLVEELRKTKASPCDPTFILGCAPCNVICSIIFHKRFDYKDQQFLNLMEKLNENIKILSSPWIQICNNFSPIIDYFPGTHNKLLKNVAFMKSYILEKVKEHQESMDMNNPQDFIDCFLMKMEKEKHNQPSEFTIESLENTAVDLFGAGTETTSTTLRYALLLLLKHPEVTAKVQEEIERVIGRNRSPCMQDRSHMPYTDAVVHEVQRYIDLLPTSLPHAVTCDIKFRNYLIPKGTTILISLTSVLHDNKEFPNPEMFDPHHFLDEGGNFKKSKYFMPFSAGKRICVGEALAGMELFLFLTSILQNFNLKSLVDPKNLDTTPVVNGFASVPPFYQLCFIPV

Cytochrome P450 1A2 = biological target: T1, Cytochrome P450 1A2 (Homo sapiens, UniProt P05177);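 note: PubChem cytochrome P450 panel assay, CYP1A2 panel member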
T1 sequence (P05177 whole entry): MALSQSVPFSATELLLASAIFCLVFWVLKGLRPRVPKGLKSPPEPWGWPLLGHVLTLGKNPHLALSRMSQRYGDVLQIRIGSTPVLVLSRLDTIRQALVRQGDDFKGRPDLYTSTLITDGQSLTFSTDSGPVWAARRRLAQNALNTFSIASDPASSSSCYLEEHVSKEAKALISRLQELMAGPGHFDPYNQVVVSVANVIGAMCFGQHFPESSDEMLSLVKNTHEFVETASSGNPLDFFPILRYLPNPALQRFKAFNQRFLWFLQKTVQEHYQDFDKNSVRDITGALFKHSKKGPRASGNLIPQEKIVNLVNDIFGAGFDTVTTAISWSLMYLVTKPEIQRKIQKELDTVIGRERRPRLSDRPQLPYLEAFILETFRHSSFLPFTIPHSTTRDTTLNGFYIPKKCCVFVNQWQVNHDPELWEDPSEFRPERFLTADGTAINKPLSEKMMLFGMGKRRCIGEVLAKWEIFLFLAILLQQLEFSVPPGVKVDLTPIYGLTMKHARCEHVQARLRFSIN

COc1c(O)cccc1-c1nnn(CCC(=O)OCC(=O)c2ccccc2)n1
EC50 (Troponin, cardiac muscle): > 71.5 µM (inactive)

CCN(CC)c1ccc(/C=C2\SC(=N)NC2=O)cc1
EC50 (Troponin, cardiac muscle): 6.01 µM (active) | AC50 [1]: 2.74 µM (active)

CN1C(=O)/C(=C/C=C2\SCCN2C)OC1=S
EC50 (Troponin, cardiac muscle): 7 µM (active)

O=C(c1ccco1)N1CCC2(CC1)CCN(c1ccc(-c3ccccc3)cc1)CC2
AC50 (Cytochrome P450 3A4): inconclusive

O=C1CCC[C@@H]2[C@@H](Cc3ccccc3)[C@H](N3CCN(c4ccccc4)CC3)C[C@@H]3CCN1[C@@H]32
IC50 [2]: > 80 µM (inactive)

Cn1nc(NC(=O)C2CCC2C(=O)O)c2c(F)cccc21 (stereo not drawn)
EC50 (Troponin, cardiac muscle): > 71.5 µM (inactive)

Cc1ccc(-c2c(C(=O)N/N=C/c3ccc(C)o3)nnn2-c2nonc2N)cc1
IC50 [2]: 12.5 µM (active)

O=C(CCCN1CCN(c2ccccn2)CC1)c1ccc(F)cc1 [AZAPERONE]
AC50 (Cytochrome P450 2D6): 7.94 µM (inconclusive) | AC50 (Cytochrome P450 2C19): 15.8 µM (inconclusive) | AC50 (Cytochrome P450 2C9): 12.6 µM (inconclusive) | AC50 (Cytochrome P450 1A2): 15.8 µM (inconclusive) | AC50 (Cytochrome P450 3A4): inconclusive
